# Laboratory results published in patent US12319652B2, “Salts and solid forms of (R)-1-(5-methoxy-1H-indol-1-yl)-N,N-dimethylpropan-2-amine” (priority 2021, dated 2025).
# Read-outs that look alike come from different tables or passages of the source.
# Legend:
# [1] = Dynamic vapor sorption (DVS); assay type: physicochemical; conditions: for DVS isotherm type / hygroscopicity: 0 to 90 to 0% RH; for DVS weight gain at 70% RH: 70% RH (printed 70° RH in Example 8); for DVS desorption behaviour (hysteresis): during desorption
# Summary of the method: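 At 25 °C, 20 to 50 mg sample was dried at 0% RH for 60 minutes, then humidity raised 0-30% in 5% steps and 30-90% in 10% steps, with matching desorption back to 0%. Equilibrium set at dm/dt 0.002%/min; amorphous material was run with fixed 1 hour steps.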
# [2] = Solubility determinations in SIF buffers (FaSSIF, FeSSIF, FaSSGF); assay type: physicochemical; conditions: for Solubility in SIF buffers: FaSSIF, FeSSIF and FaSSGF, 37° C., 24 h, concentration tested 30 mg/ml
# Summary of the method: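 Salt forms suspended at 30 mg/ml in FaSSIF, FeSSIF or FaSSGF at 37° C. for 24 h, pH kept in range with 1 M HCl or NaOH. Supernatants sampled at 1, 3, 6 and 24 h, centrifuged and quantified by HPLC as compound 1 free base against amorphous compound 1 calibrants; pellets checked by XRPD for form change.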
# [3] = assay type: physicochemical; conditions: for Change of purity profile / CP: 10-day time point
# [4] = Amorphous forms and thermal study (glass temperature Tg by DSC/TGA); assay type: physicochemical; conditions: for Glass temperatures (Tg): amorphous form
# [5] = Amorphisation activity: Antisolvent/N2 flow, 50 mg
# [6] = Amorphisation activity: Freeze dry, 50 mg
# [7] = Amorphisation activity: HFIPA Evaporation o/n, 50 mg
# [8] = Amorphisation activity: HFIPA Evaporation, 50 mg
smiles,measurement,setting,value
COc1ccc2c(ccn2C[C@@H](C)N(C)C)c1.Cl [Compound 1 HCl],DVS isotherm type / hygroscopicity,[1],slightly hygroscopic isotherm
same,DVS isotherm type / hygroscopicity,[1]; listed as Compound 1·HCl,slightly hygroscopic isotherm
same,DVS isotherm type / hygroscopicity,[1]; listed as compound 1·HCl,slightly hygroscopic
same,DVS weight gain at 70% RH,[1],ca. 0.2 % w/w
same,DVS mono and multilayer sorption >80% RH,[1]; >80% RH,ca. 0.5 % w.w
same,DVS desorption behaviour (hysteresis),[1],small water affinity hysteresis
same,DVS desorption behaviour (hysteresis),[1]; listed as Compound 1·HCl,small water affinity hysteresis
same,Disproportionation in SIF buffers,[2],disproportionation not observed
same,Solubility in SIF buffers,[2]; listed as HC,freely soluble
same,Solubility in SIF buffers,[2]; listed as compound 1·HCl,Freely soluble
same,Change of purity profile / CP,[3]; 40° C./75% RH,no reduction in CP
same,Change of purity profile / CP,"[3]; 40° C./75% RH, listed as compound 1·HCl",little changed
same,CP,"[3]; 40° C./75% RH, over 10 days",99.60 % area
same,Stability at 40° C./75% RH,"[3]; 10 days, listed as compound 1·HCl",Chemically and physically stable
same,Form by XRPD,[4]; [5],Form A
same,Outcome,[4]; [5],Crystalline
same,Form by XRPD,[4]; [6],Form A
same,Outcome,[4]; [6],Crystalline
same,Form by XRPD,[4]; [7],Form A
same,Outcome,[4]; [7],Crystalline
same,Form by XRPD,[4]; [8],Form A
same,Outcome,[4]; [8],Crystalline
same,Outcome,"[4]; Hot plate heat-up, 20 to 236 ° C.",Form A
same,Outcome,"[4]; Hot stage plate heat-up, 20 to 260 ° C.",Amorphous
same,Outcome,"[4]; Hot stage plate heat-up, 20 to 275 ° C.",Amorphous
same,Outcome,"[4]; Open Pan DSC, 20 to 220 to −20, O/N 20 to 250 ° C.",Amorphous
same,Outcome,"[4]; Sealed DSC, 20 to 220 to −20 to 250 ° C.",Amorphous
same,Outcome,"[4]; TGA, 20 to 220 to −20 to 250 ° C.",Amorphous
same,Glass temperatures (Tg),[4],37 °C
"COc1ccc2c(ccn2C[C@@H](C)[NH+](C)C)c1.O=C(O)/C=C/C(=O)O [Compound 1 fumarate, (R)-1-(5-methoxy-1H-indol-1-yl)-N,N-dimethylpropan-2-amine fumarate]","RH above which pronounced mono, multilayer sorption and probable deliquescence occurred",[1],> 80 % RH
same,DVS isotherm type / hygroscopicity,"[1]; listed as Compound 1·Fumarate, fumarate",deliquescent type isotherm
same,DVS isotherm type / hygroscopicity,"[1]; listed as compound 1·Fumarate, fumarate",deliquescent
same,DVS weight gain at 70% RH,[1],ca. 1 % w/w
same,Solubility in SIF buffers,[2],freely soluble
same,Change of purity profile / CP,[3]; 40° C./75% RH,reduction in CP
same,HPLC peak RRT 0.93,[3]; salt before storage (t = 0),0.36
same,HPLC peak RRT 1.00 (reference peak),[3]; salt before storage (t = 0),98.38
same,HPLC peak RRT 1.11,[3]; salt before storage (t = 0),0.79
same,HPLC peak RRT 1.15,[3]; salt before storage (t = 0),0.27
same,HPLC peak RRT 1.17,[3]; salt before storage (t = 0),0.13
same,HPLC peak RRT 1.19,[3]; salt before storage (t = 0),0.08
same,HPLC peak RRT 0.93,[3]; t = 5 d at 75% RH at 40° C.,0.64
same,HPLC peak RRT 0.98,[3]; t = 5 d at 75% RH at 40° C.,0.05
same,HPLC peak RRT 1.00 (reference peak),[3]; t = 5 d at 75% RH at 40° C.,96.82
same,HPLC peak RRT 1.08,[3]; t = 5 d at 75% RH at 40° C.,0.05
same,HPLC peak RRT 1.11,[3]; t = 5 d at 75% RH at 40° C.,1.06
same,HPLC peak RRT 1.15,[3]; t = 5 d at 75% RH at 40° C.,0.60
same,HPLC peak RRT 1.17,[3]; t = 5 d at 75% RH at 40° C.,0.02
same,HPLC peak RRT 1.18,[3]; t = 5 d at 75% RH at 40° C.,0.27
same,HPLC peak RRT 1.20,[3]; t = 5 d at 75% RH at 40° C.,0.20
same,HPLC peak RRT 1.27,[3]; t = 5 d at 75% RH at 40° C.,0.05
same,HPLC peak RRT 1.28,[3]; t = 5 d at 75% RH at 40° C.,0.03
same,HPLC peak RRT 1.39,[3]; t = 5 d at 75% RH at 40° C.,0.10
same,HPLC peak RRT 1.43,[3]; t = 5 d at 75% RH at 40° C.,0.06
same,HPLC peak RRT 1.47,[3]; t = 5 d at 75% RH at 40° C.,0.06
same,HPLC peak RRT 0.93,[3]; t = 10 d at 75% RH at 40° C.,0.61
same,HPLC peak RRT 0.98,[3]; t = 10 d at 75% RH at 40° C.,0.07
same,HPLC peak RRT 1.00 (reference peak),[3]; t = 10 d at 75% RH at 40° C.,97.08
same,HPLC peak RRT 1.08,[3]; t = 10 d at 75% RH at 40° C.,0.04
same,HPLC peak RRT 1.11,[3]; t = 10 d at 75% RH at 40° C.,0.96
same,HPLC peak RRT 1.13,[3]; t = 10 d at 75% RH at 40° C.,0.05
same,HPLC peak RRT 1.15,[3]; t = 10 d at 75% RH at 40° C.,0.52
same,HPLC peak RRT 1.18,[3]; t = 10 d at 75% RH at 40° C.,0.09
same,HPLC peak RRT 1.19,[3]; t = 10 d at 75% RH at 40° C.,0.12
same,HPLC peak RRT 1.20,[3]; t = 10 d at 75% RH at 40° C.,0.15
same,HPLC peak RRT 1.27,[3]; t = 10 d at 75% RH at 40° C.,0.03
same,HPLC peak RRT 1.28,[3]; t = 10 d at 75% RH at 40° C.,0.05
same,HPLC peak RRT 1.34,[3]; t = 10 d at 75% RH at 40° C.,0.04
same,HPLC peak RRT 1.39,[3]; t = 10 d at 75% RH at 40° C.,0.08
same,HPLC peak RRT 1.43,[3]; t = 10 d at 75% RH at 40° C.,0.04
same,HPLC peak RRT 1.45,[3]; t = 10 d at 75% RH at 40° C.,0.03
same,HPLC peak RRT 1.47,[3]; t = 10 d at 75% RH at 40° C.,0.05
same,Form by XRPD,[4]; [5],Amorphous
same,Outcome,[4]; [5],Gum
same,Form by XRPD,[4]; [6],Form A
same,Outcome,[4]; [6],Crystalline
same,Outcome,"[4]; Amorphisation activity: Rotary Vac (Methanol), 50 mg",Gum
same,Outcome,"[4]; Hot plate heat-up, 20 to 165 ° C.",Amorphous
same,Outcome,"[4]; Hot stage plate heat-up, 20 to 165 ° C.",Amorphous
same,Outcome,"[4]; Open Pan DSC, 20 to 145 to −20, O/N 20 to 230 ° C.",Amorphous
same,Outcome,"[4]; Sealed DSC, 20 to 145 to −20 to 230 ° C.",Amorphous
same,Outcome,"[4]; TGA, 20 to 145 to −20 to 230 ° C.",Amorphous
same,Glass temperatures (Tg),[4],24 °C
